Assay results: the NIST ThermoML archive (doi:10.1021/acs.jced.5b00154)
Numbers after ± are expanded uncertainties.

Conditions: 101.33 kPa, Liquid, Vibrating tube method

## [2H]O[2H] [water-d2]
278.15 K
  mass density: 1105.53 ± 0.08 kg/m3
288.15 K
  mass density: 1105.77 ± 0.08 kg/m3
298.15 K
  mass density: 1104.36 ± 0.079 kg/m3
308.15 K
  mass density: 1101.63 ± 0.079 kg/m3
318.15 K
  mass density: 1097.84 ± 0.078 kg/m3
